Source: a melting point compilation (Tetko et al.; mined from patent text by program, amines drawn as free bases though some values may be those of a salt)

| Compound | melting point [°C] |
| --- | --- |
| CN1CCN(c2ncccc2OC2CCN(c3ccc(Br)cc3)C2=O)CC1 (stereo not given) | 72 to 82 |
| COC(=O)C(=Cc1ccc(OC)c(OC)c1)NC(C)=O | 198 to 200 |
| CCCCCC1CCc2c(c(F)c(F)c3oc(C)cc23)O1 (stereo not given) | 61 |
| Cn1cc(Oc2ccccc2)c(=S)c(-c2cccc(C(F)(F)F)c2)c1 | 127 to 131 |
| NC(=S)c1sc(N2CCCC2)nc1N | 264 to 265 |
| C=CCc1c(N2C(=O)C3=C(CCCC3)C2=O)ccc(Cl)c1O | 80 to 82.5 |
| O=C(Nc1ccccc1O)C(F)(F)C(O)(Cn1cncn1)c1ccc(F)cc1F (stereo not given) | 121 to 126 |
| CN1C[C@H](CN2CCN(C(c3ccccc3)c3ccccc3)CC2)C[C@@H]2c3cccc4[nH]c(Br)c(c34)C[C@H]21 | 255 |
| NCc1ccc(-c2csc(N=C(N)N)n2)o1 | 160 to 163 |
| Cc1noc(NS(=O)(=O)c2ccccc2F)c1Br | 87 to 89 |
| CCN(CC)c1ccc(N(c2ccc(N(CC)CC)cc2)C2(c3ccc(N(CC)CC)cc3C)OC(=O)c3ccccc32)cc1 (stereo not given) | 58 to 71 |
| CC(Br)c1ccc2onc(-c3ccc(Cl)cc3)c2c1 (stereo not given) | 111 to 116 |
| COc1cc2c(cc1Cl)CCN(C)CC2c1ccc(Br)cc1 (stereo not given) | 116 to 118 |
| COc1c(Cl)ccc(-c2nc(Cl)c3c(ncn3C)n2)c1F | 184 to 186 |
| O=C(c1ccccc1)c1[nH]c2cc(Cl)ccc2c1CC(=O)N1CCOCC1 | 188 to 190 |
| COc1ccc(-c2nnsc2-c2ccc(OC)cc2)cc1 | 80 to 82 |
| CCc1nnc(CCc2ccc([N+](=O)[O-])cc2)o1 | 65 to 66 |
| CCCCCCCCCCCCCCCCCC(=O)Nc1ccc(NC(=O)NS(=O)(=O)c2ccc3ccccc3c2)cc1 | 192 |
| CS(=O)(=O)c1cnc(NC(=O)c2ccccc2O)s1 | 282 to 283 |
| COc1ccc(Oc2ccn3nc(-c4ccccc4)c(-c4ccc(=O)n(C(C)C)n4)c3c2)nc1 | 148 to 150 |
| O=C(CSc1nc2ccccc2[nH]1)c1ccc2[nH]c3ncc(Cl)cc3c2c1 | 209 to 210 |
| CCCc1nc2c(C)cc(-c3nc4ccccc4n3C)cc2n1Cc1ccc(-c2ccccc2NC(=O)C(F)(F)F)cc1 | 115 to 120 |
| Cc1ccc(C(O)(c2ccc3c(c2)c(-c2cccc(Cl)c2)nc2nnnn23)c2cncn2C)cc1 (stereo not given) | 165 |
| CN1CCC(c2c[nH]c3ccc(NC(=O)c4ccncc4)nc23)CC1 | 126 to 128 |

| Compound | melting point [°C] |
| --- | --- |
| O=C(NNc1ccc([N+](=O)[O-])cc1)C(F)(F)F | 115 to 117 |
| CCOC(=O)CCCCCCC(=O)Nc1ccc2c(c1)C(c1ccccc1)=N[C@@H](C)C(=O)N2C | 55 to 56 |
| O=C1N=NC(=O)c2ccccc21 | 257 to 259 |
| Cc1cc(CCCCCOc2c(Cl)cc(-c3nnn[nH]3)cc2Cl)on1 | 122 to 123 |
| CC(=O)S[C@@H]1CCO[C@@H](c2ccccc2)O1 (relative stereo) | 95 to 96 |
| CN1C(=O)SC(Cc2cn(-c3ccccc3)nc2OCc2ccccc2)C1=O (stereo not given) | 115 to 116 |
| COc1cc2c(cc1Nc1ncc(Cl)c(Nc3ccccc3S(=O)(=O)C(C)C)n1)CCN(CC(=O)N1CCOCC1)CC2 | 100 |
| CCOC(=O)CCc1cc(OC)ccc1C(=O)CCCNC(C)=O | 59 to 61 |
| CCNC(=O)c1ccnc([N+](=O)[O-])c1 | 65 to 67 |
| COCCc1nc2c(N)nc3ccccc3c2n1CCOc1ccccc1 | 171 to 174 |
| COc1ccc(C2CCc3cc(OC)ccc3C2CCO)cc1 (stereo not given) | 95 |
| Cn1cncc1C(C)(c1ccc(Cl)cc1)c1ccc2c(c1)c(-c1cccc(Cl)c1)cc(=O)n2C (stereo not given) | 204 |
| CN(C)C1(c2ccccc2)CCC2(OCCc3c2[nH]c2ccccc32)C(CCO)C1 (stereo not given) | 311 to 314 |
| CC#CCOc1cc(N(C)c2cccc(F)c2F)ncn1 | 77.5 |
| CC(C)(C)CNc1nc(C#N)nc2ccc(OCc3ccccn3)cc12 | 160 |
| O=c1ccoc2cc(OCCCCl)ccc12 | 72 to 73 |
| CC(C)(C)c1cc(Cn2nc(-c3ccccc3)oc2=S)cc(C(C)(C)C)c1O | 166 |
| CCCC1CCC(C2CCC(C3CCCC(=O)C3)CC2)CC1 (stereo not given) | 1.5 |
| COc1cc(N2CCN(Cc3ccccc3)CC2)c2ncccc2c1Cl | 138 to 140 |
| COc1cc2cc[nH]c2cc1OCCCCl | 73 to 75 |
| Cc1c(C(=O)OCc2ccccc2)sc2ccc3[nH]c4c(c3c12)CNCC4 | 178 |
| Cc1ccc(Cn2c3c(c4cc(-c5cccc(C)c5)ccc42)C(=O)C(=O)OC3)cc1 | 216 to 217 |
| COC(=O)c1cc(C(=O)O)cc(-c2cc(Cl)ccc2Cl)c1 | 222 to 224 |
| CCOC(=O)C(CC)C(=O)Nc1cc(Cl)cc(Cl)c1 (stereo not given) | 96.5 to 98 |

| Compound | melting point [°C] |
| --- | --- |
| Cc1ccc(C(=O)c2cc(Br)c(CC(=O)O)n2C)cc1 | 162 to 164 |
| Cc1ccc2c(=O)[nH]c(N3CCN(CCO)CC3)cc2c1 | 236 to 237 |
| C/C=C/c1cc2c(s1)[C@@H](OC(C)=O)[C@H](OC(C)=O)C[C@]2(OC(C)=O)C(=O)OC | 140 to 143 |
| Cc1ccc(-c2nc(-c3ccc(O)cc3O)nc(-c3ccc(O)cc3O)n2)c(C)c1 | 204 to 207 |
| Oc1cc(C(F)CBr)c2oc(-c3ccc(O)c(F)c3)nc2c1 (stereo not given) | 185 to 186 |
| CCC(=O)NCCSC(=O)CC | 48 to 49 |
| CCn1c(=S)sc2c(=N)n(NC(N)=O)cnc21 | 212 |
| CCCc1c(S)ccc2c(=O)cc(C(=O)OC)oc12 | 98 to 99 |
| Cc1oc(-c2ccc(C(F)(F)F)cc2)nc1-c1ccc(-c2cc(Br)c(O)c(Br)c2)cc1 | 79 to 81 |
| FC(F)(F)c1ccc(Cl)cc1CN1CCNc2ncc(-c3cn[nH]c3)cc21 | 271 |
| CCn1c2ccc(I)cc2c2cc(I)ccc21 | 75 to 79 |
| CC1CCN(c2cc(F)cc(C(=O)Nc3ccc(Oc4ccnc(N5CCOCC5)n4)c4ccccc34)c2)CC1 | 88 to 89 |
| CCCOc1ccc(C2=NN(C(=O)Nc3ccc(OC(F)(F)F)cc3)CC2N(C)C(=O)OC)cc1 (stereo not given) | 153 to 155 |
| Cc1ccc(Sc2c(SCc3ccccc3)cc(C(=O)O)cc2S(=O)(=O)Cl)cc1 | 188 to 190 |
| COC(=O)CCCCc1ccc(NC(=O)N(CCO)C2CCN(Cc3ccccc3)CC2)cc1 | 118 to 120 |
| CS(=O)(=O)c1ccc(-c2nc3cc(C4=CCN(S(=O)(=O)CCCO)CC4)ccc3o2)c(F)c1 | 184 to 186 |
| O=C(OC1C2CN(Cc3ccccc3)CC1CN(C(=O)c1ccc(Cl)cc1)C2)c1ccccc1 (stereo not given) | 165 |
| COc1ccc(-c2oc(C(=O)O)cc(=O)c2O)cc1 | 258 to 260 |
| CC(=O)Nc1cc2c(cc1Oc1ccc(F)cc1F)CCC2=O | 210 |
| CCCCCCCCCc1ccc(-c2nc(C)c(C(C)=NNC(=N)N)s2)cc1 | 203 to 206 |
| CCOC(=O)C(=Cc1cccc(OC)c1OC)N=[N+]=[N-] | < 50 |
| O=C(Nc1ccc(C(=O)SCC2C(=O)OCC2c2ccccc2)cc1)OCc1ccccc1 (stereo not given) | 160 to 162 |
